# Results from patent US20250302815A1, “PROTEIN TYROSINE PHOSPHATASE TARGETING LIGANDS” (CALICO LIFE SCIENCES LLC, priority 2021, published 2025).
# Experiments:
# [1] = molecular target: T1, PTPN2 (HiBIT-PTPN2 in 293T.109 cells) (Homo sapiens, UniProt P17706); assay: HiBiT Degradation 293T.109 PTPN2 (Nano-Glo HiBiT Lytic Assay); assay type: cell-based; details: 24.0 hours
# T1 construct: expressed in transfected cells; host or cells: 293T.109 (293T WT from ATCC)
# T1 sequence (P17706 1-415): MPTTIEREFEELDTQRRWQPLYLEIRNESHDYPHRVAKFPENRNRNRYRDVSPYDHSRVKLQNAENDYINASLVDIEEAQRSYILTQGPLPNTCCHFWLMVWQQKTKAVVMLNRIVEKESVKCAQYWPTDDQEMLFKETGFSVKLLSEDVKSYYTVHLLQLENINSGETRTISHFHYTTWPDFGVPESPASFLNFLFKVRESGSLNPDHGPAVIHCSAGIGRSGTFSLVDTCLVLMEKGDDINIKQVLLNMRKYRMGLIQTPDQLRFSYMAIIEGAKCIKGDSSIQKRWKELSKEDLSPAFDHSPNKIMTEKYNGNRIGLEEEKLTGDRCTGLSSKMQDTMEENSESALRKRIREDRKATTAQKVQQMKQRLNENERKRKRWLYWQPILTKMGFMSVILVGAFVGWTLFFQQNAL
# Method in brief: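 293T.109 cells with ectopic N-terminal HiBiT-tagged PTPN2 (5000/well) exposed to compounds for 24 h at 37 °C, 5% CO2; 11-point half-log titration from 10 μM top, duplicates. Remaining HiBiT-PTPN2 read as luminescence with Nano-Glo HiBiT lytic reagent, normalised to untreated cells (0%) and reagent-free wells.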
# [2] = molecular target: T2, PTPN2 (B16F10.4 cells) (Mus musculus, UniProt Q06180); assay: HiBiT Degradation B16F10.4 PTPN2; assay type: cell-based; details: 24.0 hours
# T2 construct: HiBiT; host or cells: B16F10.4
# T2 sequence (Q06180 1-406): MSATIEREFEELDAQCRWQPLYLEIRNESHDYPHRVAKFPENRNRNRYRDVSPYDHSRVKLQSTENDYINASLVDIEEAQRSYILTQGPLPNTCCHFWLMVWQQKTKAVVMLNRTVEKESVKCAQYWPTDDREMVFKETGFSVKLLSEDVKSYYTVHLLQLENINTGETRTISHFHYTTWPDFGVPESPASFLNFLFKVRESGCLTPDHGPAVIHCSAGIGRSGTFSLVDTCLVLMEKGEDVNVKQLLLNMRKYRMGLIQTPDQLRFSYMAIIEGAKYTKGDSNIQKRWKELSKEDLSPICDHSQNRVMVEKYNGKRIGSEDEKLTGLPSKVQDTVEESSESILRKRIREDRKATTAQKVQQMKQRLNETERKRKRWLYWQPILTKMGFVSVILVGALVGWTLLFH
Compound,DC50 [1],DC50 [2]
"Cn1c(=O)n(C2CCC(=O)NC2=O)c2ccc(C3CCN(C(=O)Nc4cc(CS(=O)(=O)N5CCC(Nc6cccc(-c7sc(C(=O)O)c(OCC(=O)O)c7Cl)c6)CC5(C)C)ccc4F)CC3)cc21 (stereo not drawn) [Example 114, 3-(carboxymethoxy)-4-chloro-5-[3-[[1-[[3-[[4-[1-(2,6-dioxo-3-piperidyl)-3-methyl-2-oxo-benzimidazol-5-yl]piperidine-1-carbonyl]amino]-4-fluoro-phenyl]methylsulfonyl]-2,2-dimethyl-4-piperidyl]amino]phenyl]thiophene-2-carboxylic acid]",50 to 200 nM,< 50 nM
"CC1(C)C[C@@H](Nc2cccc(-c3sc(C(=O)O)c(OCC(=O)O)c3Cl)c2)CCN1S(=O)(=O)Cc1cccc(NC(=O)C2CN(C(=O)CNc3cccc4c3CN([C@H]3CCC(=O)NC3=O)C4=O)C2)c1 (single isomer, unassigned) [Example 44b]",< 50 nM,200 to 1000 nM
"O=C(O)COc1c(C(=O)O)sc(-c2cccc(NC3CCN(S(=O)(=O)Cc4cccc(NC(=O)CCOCCOCCOCCCc5ccc6c(c5)CN(C5CCC(=O)NC5=O)C6=O)c4)CC3)c2)c1Cl (stereo not drawn) [Example 19, 3-(carboxymethoxy)-4-chloro-5-(3-((1-((3-(3-(2-(2-(3-(2-(2,6-dioxopiperidin-3-yl)-1-oxoisoindolin-5-yl)propoxy)ethoxy)ethoxy)propanamido)benzyl)sulfonyl)piperidin-4-yl)amino)phenyl)thiophene-2-carboxylic acid]",200 to 1000 nM,200 to 1000 nM
"CC1(C)C[C@@H](Nc2cccc(-c3sc(C(=O)O)c(OCC(=O)O)c3Cl)c2)CCN1S(=O)(=O)Cc1cccc(NC(=O)CCn2cc(CNc3cccc4c3C(=O)N(C3CCC(=O)NC3=O)C4=O)nn2)c1 (stereo partly drawn) [Example 13, 3-(carboxymethoxy)-4-chloro-5-(3-(((4S)-1-((3-(3-(4-(((2-(2,6-dioxopiperidin-3-yl)-1,3-dioxoisoindolin-4-yl)amino)methyl)-1H-1,2,3-triazol-1-yl)propanamido)benzyl)sulfonyl)-2,2-dimethylpiperidin-4-yl)amino)phenyl)thiophene-2-carboxylic acid]",200 to 1000 nM,200 to 1000 nM
"O=C(O)COc1c(C(=O)O)sc(-c2cccc(NC3CCN(S(=O)(=O)Cc4cccc(NC(=O)N5CCC(Nc6cccc7c6CN(C6CCC(=O)NC6=O)C7=O)CC5)c4)CC3)c2)c1Cl (stereo not drawn) [Example 59, 3-(carboxymethoxy)-4-chloro-5-[3-[[1-[[3-[[4-[[2-(2,6-dioxo-3-piperidyl)-1-oxo-isoindolin-4-yl]amino]piperidine-1-carbonyl]amino]phenyl]methylsulfonyl]-4-piperidyl]amino]phenyl]thiophene-2-carboxylic acid]",200 to 1000 nM,200 to 1000 nM
"CC1(C)C[C@@H](Nc2cccc(-c3sc(C(=O)O)c(OCC(=O)O)c3Cl)c2)CCN1S(=O)(=O)Cc1cccc(NC(=O)C2CN(C(=O)CNc3cccc4c3CN([C@@H]3CCC(=O)NC3=O)C4=O)C2)c1 (single isomer, unassigned) [Example 44a]",< 50 nM,200 to 1000 nM
"CC1(C)C[C@@H](Nc2cccc(-c3sc(C(=O)O)c(OCC(=O)O)c3Cl)c2)CCN1S(=O)(=O)Cc1cccc(NC(=O)C2CCN(C(=O)CNc3ccc4c(c3)CN(C3CCC(=O)NC3=O)C4=O)CC2)c1 (stereo partly drawn) [Example 41, 3-(carboxymethoxy)-4-chloro-5-(3-(((4S)-1-((3-(1-((2-(2,6-dioxopiperidin-3-yl)-1-oxoisoindolin-5-yl)glycyl)piperidine-4-carboxamido)benzyl)sulfonyl)-2,2-dimethylpiperidin-4-yl)amino)phenyl)thiophene-2-carboxylic acid]",50 to 200 nM,≥ 1000 nM
"Cn1c(=O)n(C2CCC(=O)NC2=O)c2ccc(N3CCC4(CC3)CN(C(=O)Nc3cccc(CS(=O)(=O)N5CCC(Nc6cccc(-c7sc(C(=O)O)c(OCC(=O)O)c7Cl)c6)CC5)c3)C4)cc21 (stereo not drawn) [Example 102, 3-(carboxymethoxy)-4-chloro-5-[3-[[1-[[3-[[7-[1-(2,6-dioxo-3-piperidyl)-3-methyl-2-oxo-benzimidazol-5-yl]-2,7-diazaspiro[3.5]nonane-2-carbonyl]amino]phenyl]methylsulfonyl]-4-piperidyl]amino]phenyl]thiophene-2-carboxylic acid]",50 to 200 nM,50 to 200 nM

# More lines, now with the values ahead:
DC50 [1],DC50 [2],Compound
200 to 1000 nM,50 to 200 nM,"Cn1c(=O)n(C2CCC(=O)NC2=O)c2ccc(C3CCN(C(=O)Nc4cccc(CS(=O)(=O)N5CC[C@@H](Oc6cccc(-c7sc(C(=O)O)c(OCC(=O)O)c7Cl)c6)CC5(C)C)c4)CC3)cc21 (stereo partly drawn) [Example 226, 3-(carboxymethoxy)-4-chloro-5-(3-(((4R)-1-((3-(4-(1-(2,6-dioxopiperidin-3-yl)-3-methyl-2-oxo-2,3-dihydro-1H-benzo[d]imidazol-5-yl)piperidine-1-carboxamido)benzyl)sulfonyl)-2,2-dimethylpiperidin-4-yl)oxy)phenyl)thiophene-2-carboxylic acid]"
50 to 200 nM,50 to 200 nM,"Cn1c(=O)n(C2CCC(=O)NC2=O)c2ccc(-c3ccc(NC(=O)Nc4cccc(CS(=O)(=O)N5CC[C@H](Nc6cccc(-c7sc(C(=O)O)c(OCC(=O)O)c7Cl)c6)CC5(C)C)c4)cc3)cc21 (stereo partly drawn) [Example 145, 3-(carboxymethoxy)-4-chloro-5-(3-(((4S)-1-((3-(3-(4-(1-(2,6-dioxopiperidin-3-yl)-3-methyl-2-oxo-2,3-dihydro-1H-benzo[d]imidazol-5-yl)phenyl)ureido)benzyl)sulfonyl)-2,2-dimethylpiperidin-4-yl)amino)phenyl)thiophene-2-carboxylic acid]"
200 to 1000 nM,200 to 1000 nM,"CC1(C)C[C@@H](Nc2cccc(-c3sc(C(=O)O)c(OCC(=O)O)c3Cl)c2)CCN1S(=O)(=O)Cc1cccc(NC(=O)N2CCC(c3ccc4c(c3)n(C3CCOCC3)c(=O)n4C3CCC(=O)NC3=O)CC2)c1 (stereo partly drawn) [Example 159, 3-(carboxymethoxy)-4-chloro-5-(3-(((4S)-1-((3-(4-(1-(2,6-dioxopiperidin-3-yl)-2-oxo-3-(tetrahydro-2H-pyran-4-yl)-2,3-dihydro-1H-benzo[d]imidazol-5-yl)piperidine-1-carboxamido)benzyl)sulfonyl)-2,2-dimethylpiperidin-4-yl)amino)phenyl)thiophene-2-carboxylic acid]"
50 to 200 nM,50 to 200 nM,"Cn1c(=O)n(C2CCC(=O)NC2=O)c2ccc(Nc3cccc(CC(=O)Nc4cccc(CS(=O)(=O)N5CC[C@H](Nc6cccc(-c7sc(C(=O)O)c(OCC(=O)O)c7Cl)c6)CC5(C)C)c4)c3)cc21 (stereo partly drawn) [Example 191, 3-(carboxymethoxy)-4-chloro-5-(3-(((4S)-1-((3-(2-(3-((1-(2,6-dioxopiperidin-3-yl)-3-methyl-2-oxo-2,3-dihydro-1H-benzo[d]imidazol-5-yl)amino)phenyl)acetamido)benzyl)sulfonyl)-2,2-dimethylpiperidin-4-yl)amino)phenyl)thiophene-2-carboxylic acid]"
50 to 200 nM,50 to 200 nM,CC1(C)C[C@@H](Nc2cccc(-c3sc(C(=O)O)c(OCC(=O)O)c3Cl)c2)CCN1S(=O)(=O)Cc1cccc(NC(=O)N2CCC(c3ccc4c(c3)C3(CC3)C(=O)N4C3CCC(=O)NC3=O)CC2)c1 (stereo partly drawn) [Example 150]
200 to 1000 nM,200 to 1000 nM,"CC1(C)C[C@@H](Nc2cccc(-c3sc(C(=O)O)c(OCC(=O)O)c3Cl)c2)CCN1S(=O)(=O)Cc1cccc(NC(=O)N2CCC(c3cnc4c(c3)c3ccccc3n4C3CCC(=O)NC3=O)CC2)c1 (stereo partly drawn) [Example 218, 3-(carboxymethoxy)-4-chloro-5-[3-[[(4S)-1-[[3-[[4-[9-(2,6-dioxo-3-piperidyl)pyrido[2,3-b]indol-3-yl]piperidine-1-carbonyl]amino]phenyl]methylsulfonyl]-2,2-dimethyl-4-piperidyl]amino]phenyl]thiophene-2-carboxylic acid]"
200 to 1000 nM,< 50 nM,"Cn1nc(C2CCC(=O)NC2=O)c2ccc(C3CCN(C(=O)Nc4cccc(CS(=O)(=O)N5CC[C@@H](Nc6cccc(-c7sc(C(=O)O)c(OCC(=O)O)c7Cl)c6)CC5(C)C)c4)CC3(F)F)cc21 (stereo partly drawn) [Example 185, 3-(carboxymethoxy)-4-chloro-5-(3-(((4R)-1-((3-(4-(3-(2,6-dioxopiperidin-3-yl)-1-methyl-1H-indazol-6-yl)-3,3-difluoropiperidine-1-carboxamido)benzyl)sulfonyl)-2,2-dimethylpiperidin-4-yl)amino)phenyl)thiophene-2-carboxylic acid]"
